target: recombinant human UAE (Homo sapiens (Human), UniProt P22314); assay: Ubiquitin Activating Enzyme (UAE) HTRF Assay; conditions: read-out: % inhibition @0.111 μM
Sequence (P22314 whole entry): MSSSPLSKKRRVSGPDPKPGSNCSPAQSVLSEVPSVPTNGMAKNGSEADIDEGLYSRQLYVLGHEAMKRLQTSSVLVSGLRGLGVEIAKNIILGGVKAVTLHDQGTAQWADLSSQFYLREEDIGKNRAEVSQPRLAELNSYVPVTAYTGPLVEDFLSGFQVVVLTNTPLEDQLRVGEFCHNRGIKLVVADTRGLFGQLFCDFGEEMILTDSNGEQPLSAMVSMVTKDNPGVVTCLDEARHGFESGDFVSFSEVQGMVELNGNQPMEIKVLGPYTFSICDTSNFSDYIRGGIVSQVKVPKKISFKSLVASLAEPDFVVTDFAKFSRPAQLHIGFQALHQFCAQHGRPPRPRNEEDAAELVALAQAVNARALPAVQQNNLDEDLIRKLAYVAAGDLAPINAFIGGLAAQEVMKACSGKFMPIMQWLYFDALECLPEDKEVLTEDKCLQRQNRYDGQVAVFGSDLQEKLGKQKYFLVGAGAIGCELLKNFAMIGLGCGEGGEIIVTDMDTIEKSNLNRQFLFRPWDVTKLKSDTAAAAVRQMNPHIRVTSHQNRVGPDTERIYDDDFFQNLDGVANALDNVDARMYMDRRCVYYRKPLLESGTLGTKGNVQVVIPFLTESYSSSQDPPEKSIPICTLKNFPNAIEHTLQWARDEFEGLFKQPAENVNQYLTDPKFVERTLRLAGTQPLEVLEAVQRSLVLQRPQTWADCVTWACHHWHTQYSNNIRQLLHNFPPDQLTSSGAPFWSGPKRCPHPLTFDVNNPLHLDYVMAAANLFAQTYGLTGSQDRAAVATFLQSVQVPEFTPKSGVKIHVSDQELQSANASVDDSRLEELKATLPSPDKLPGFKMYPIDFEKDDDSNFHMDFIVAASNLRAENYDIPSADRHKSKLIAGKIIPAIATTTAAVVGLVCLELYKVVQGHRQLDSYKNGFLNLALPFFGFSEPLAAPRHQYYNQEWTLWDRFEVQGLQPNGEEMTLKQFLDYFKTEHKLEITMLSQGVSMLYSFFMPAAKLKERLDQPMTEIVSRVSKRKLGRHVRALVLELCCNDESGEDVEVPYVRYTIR
Experimental: (§1) After incubation for 120 minutes, quantification of the FRET is performed on the Pherostar (BMG).
(§2) For compounds whose values are marked with an asterisk (*), mouse UAE was used. For all other compounds, human UAE was used.

SMILES	inhibition at 0.111 µM [%]
NS(=O)(=O)OC[C@H]1C[C@@H](Nc2ccnc3cc(-c4ccc5[nH]c6ccccc6c5c4)nn23)[C@H](O)[C@@H]1O (relative stereo) [Compound I-037, (rac)-[(1R,2R,3S,4R)-4-{[2-(9H-carbazol-3-yl)pyrazolo[1,5-a]pyrimidin-7-yl]amino}-2,3-dihydroxycyclopentyl]methyl rel-sulfamate]	100
NS(=O)(=O)OC[C@H]1C[C@@H](Nc2ccnc3cc(-c4cccc5c4sc4ccccc45)nn23)[C@H](O)[C@@H]1O (relative stereo) [Compound I-056, (rac)-((1R,2R,3S,4R)-4-((2-(Dibenzo[b,d]thiophen-4-yl)pyrazolo[1,5-a]pyrimidin-7-yl)amino)-2,3-dihydroxycyclopentyl)methyl rel-sulfamate]	100
NS(=O)(=O)OC[C@H]1C[C@@H](Nc2ccnc3cc(-c4ccc(Cl)c5ccccc45)nn23)[C@H](O)[C@@H]1O [Compound I-108, (s.e.)-[(1R,2R,3S,4R)-4-{[2-(4-chloro-1-naphthyl)pyrazolo[1,5-a]pyrimidin-7-yl]amino}-2,3-dihydroxycyclopentyl]methyl sulfamate]	100
COc1ccc(SC(F)(F)F)cc1-c1cc2nccc(N[C@@H]3C[C@H](COS(N)(=O)=O)[C@@H](O)[C@H]3O)n2n1 [Compound I-120, (s.e.)-((1R,2R,3S,4R)-2,3-dihydroxy-4-(2-(2-methoxy-5-(trifluoromethylthio)-phenyl)pyrazolo[1,5-a]pyrimidin-7-ylamino)cyclopentyl)methyl sulfamate]	100
Cc1cc(N[C@@H]2C[C@H](COS(N)(=O)=O)[C@@H](O)[C@H]2O)n2nc(-c3ccccc3)cc2n1 (relative stereo) [Compound I-004, (rac)-{(1R,2R,3S,4R)-2,3-dihydroxy-4-[(5-methyl-2-phenylpyrazolo[1,5-a]pyrimidin-7-yl)amino]cyclopentyl}methyl rel-sulfamate]	31
NS(=O)(=O)OC[C@H]1C[C@@H](Nc2ccnc3cc(-c4ccc5ccccc5n4)nn23)[C@H](O)[C@@H]1O (relative stereo) [Compound I-042, (rac)-((1R,2R,3S,4R)-2,3-dihydroxy-4-(2-(quinolin-2-yl)pyrazolo[1,5-a]pyrimidin-7-ylamino)cyclopentyl)methyl rel-sulfamate]	100
NS(=O)(=O)OC[C@H]1C[C@@H](Nc2ccnc3cc(-c4cccc5c4oc4ccccc45)nn23)[C@H](O)[C@@H]1O [Compound I-103, (s.e.)-((1R,2R,3S,4R)-4-(2-(dibenzo[b,d]furan-4-yl)pyrazolo[1,5-a]pyrimidin-7-ylamino)-2,3-dihydroxycyclopentyl)methyl sulfamate]	100
NS(=O)(=O)OC[C@H]1C[C@@H](Nc2ccnc3cc(-c4ccc5cc(F)ccc5c4)nn23)[C@H](O)[C@@H]1O [Compound I-113, (s.e.)-((1R,2R,3S,4R)-4-(2-(6-fluoronaphthalen-2-yl)pyrazolo[1,5-a]pyrimidin-7-ylamino)-2,3-dihydroxycyclopentyl)methyl sulfamate]	100
COc1ccccc1-c1cc2nccc(N[C@@H]3C[C@H](COS(N)(=O)=O)[C@@H](O)[C@H]3O)n2n1 (relative stereo) [Compound I-072, (rac)-((1R,2R,3S,4R)-2,3-dihydroxy-4-(2-(2-methoxyphenyl)pyrazolo[1,5-a]pyrimidin-7-ylamino)cyclopentyl)methyl rel-sulfamate]	100
NS(=O)(=O)OC[C@H]1C[C@@H](Nc2ccnc3cc(-c4cccc5cccnc45)nn23)[C@H](O)[C@@H]1O (relative stereo) [Compound I-017, (rac)-((1R,2R,3S,4R)-2,3-Dihydroxy-4-((2-(quinolin-8-yl)pyrazolo[1,5-a]pyrimidin-7-yl)amino)cyclopentyl)methyl rel-sulfamate]	100
NS(=O)(=O)OC[C@H]1C[C@@H](Nc2ccnc3cc(-c4ccc5c(c4)[nH]c4ccccc45)nn23)[C@H](O)[C@@H]1O (relative stereo) [Compound I-062, (rac)-[(1R,2R,3S,4R)-4-{[2-(9H-carbazol-2-yl)pyrazolo[1,5-a]pyrimidin-7-yl]amino}-2,3-dihydroxycyclopentyl]methyl rel-sulfamate]	100
NS(=O)(=O)OC[C@H]1C[C@@H](Nc2ccnc3cc(-c4ccnc(C(F)(F)F)c4)nn23)[C@H](O)[C@@H]1O (relative stereo) [Compound I-059, (rac)-((1R,2R,3S,4R)-2,3-dihydroxy-4-(2-(2-(trifluoromethyl)pyridin-4-yl)pyrazolo[1,5-a]pyrimidin-7-ylamino)cyclopentyl)methyl rel-sulfamate]	94

Second part, the compound after the results:

inhibition at 0.111 µM [%]	SMILES
100	NS(=O)(=O)OC[C@H]1C[C@@H](Nc2ccnc3cc(-c4cccc(OC(F)F)c4)nn23)[C@H](O)[C@@H]1O (relative stereo) [Compound I-050, (rac)-((1R,2R,3S,4R)-4-((2-(3-(Difluoromethoxy)phenyl)pyrazolo[1,5-a]pyrimidin-7-yl)amino)-2,3-dihydroxycyclopentyl)methyl rel-sulfamate]
100	NS(=O)(=O)OC[C@H]1C[C@@H](Nc2ccnc3cc(-c4ccc5ncccc5c4)nn23)[C@H](O)[C@@H]1O (relative stereo) [Compound I-034, (rac)-((1R,2R,3S,4R)-2,3-dihydroxy-4-(2-(quinolin-6-yl)pyrazolo[1,5-a]pyrimidin-7-ylamino)cyclopentyl)methyl rel-sulfamate]
100	NS(=O)(=O)OC[C@H]1C[C@@H](Nc2ccnc3cc(-c4cccc(N5CCCCC5)c4)nn23)[C@H](O)[C@@H]1O (relative stereo) [Compound I-077, (rac)-((1R,2R,3S,4R)-2,3-dihydroxy-4-(2-(3-(piperidin-1-yl)phenyl)pyrazolo[1,5-a]pyrimidin-7-ylamino)cyclopentyl)methyl rel-sulfamate]
100	CC(C)(C)c1cccc(-c2cc3nccc(N[C@@H]4C[C@H](COS(N)(=O)=O)[C@@H](O)[C@H]4O)n3n2)c1 (relative stereo) [Compound I-015, (rac)-((1R,2R,3S,4R)-4-((2-(3-(tert-Butyl)phenyl)pyrazolo[1,5-a]pyrimidin-7-yl)amino)-2,3-dihydroxycyclopentyl)methyl rel-sulfamate]
100	NS(=O)(=O)OC[C@H]1C[C@@H](Nc2ccnc3cc(-c4cccc(-c5ccccn5)c4)nn23)[C@H](O)[C@@H]1O (relative stereo) [Compound I-036, (rac)-((1R,2R,3S,4R)-2,3-Dihydroxy-4-((2-(3-(pyridin-2-yl)phenyl)pyrazolo[1,5-a]pyrimidin-7-yl)amino)cyclopentyl)methyl rel-sulfamate]
100	COc1ccc(Cl)cc1-c1cc2nccc(N[C@@H]3C[C@H](COS(N)(=O)=O)[C@@H](O)[C@H]3O)n2n1 (relative stereo) [Compound I-020, (rac)-((1R,2R,3S,4R)-4-(2-(5-chloro-2-methoxyphenyl)pyrazolo[1,5-a]pyrimidin-7-ylamino)-2,3-dihydroxycyclopentyl)methyl rel-sulfamate]

target: mouse UAE (Mus musculus (Mouse), UniProt Q02053); assay: Ubiquitin Activating Enzyme (UAE) HTRF Assay; conditions: read-out: % inhibition @0.111 μM
Sequence (Q02053 whole entry): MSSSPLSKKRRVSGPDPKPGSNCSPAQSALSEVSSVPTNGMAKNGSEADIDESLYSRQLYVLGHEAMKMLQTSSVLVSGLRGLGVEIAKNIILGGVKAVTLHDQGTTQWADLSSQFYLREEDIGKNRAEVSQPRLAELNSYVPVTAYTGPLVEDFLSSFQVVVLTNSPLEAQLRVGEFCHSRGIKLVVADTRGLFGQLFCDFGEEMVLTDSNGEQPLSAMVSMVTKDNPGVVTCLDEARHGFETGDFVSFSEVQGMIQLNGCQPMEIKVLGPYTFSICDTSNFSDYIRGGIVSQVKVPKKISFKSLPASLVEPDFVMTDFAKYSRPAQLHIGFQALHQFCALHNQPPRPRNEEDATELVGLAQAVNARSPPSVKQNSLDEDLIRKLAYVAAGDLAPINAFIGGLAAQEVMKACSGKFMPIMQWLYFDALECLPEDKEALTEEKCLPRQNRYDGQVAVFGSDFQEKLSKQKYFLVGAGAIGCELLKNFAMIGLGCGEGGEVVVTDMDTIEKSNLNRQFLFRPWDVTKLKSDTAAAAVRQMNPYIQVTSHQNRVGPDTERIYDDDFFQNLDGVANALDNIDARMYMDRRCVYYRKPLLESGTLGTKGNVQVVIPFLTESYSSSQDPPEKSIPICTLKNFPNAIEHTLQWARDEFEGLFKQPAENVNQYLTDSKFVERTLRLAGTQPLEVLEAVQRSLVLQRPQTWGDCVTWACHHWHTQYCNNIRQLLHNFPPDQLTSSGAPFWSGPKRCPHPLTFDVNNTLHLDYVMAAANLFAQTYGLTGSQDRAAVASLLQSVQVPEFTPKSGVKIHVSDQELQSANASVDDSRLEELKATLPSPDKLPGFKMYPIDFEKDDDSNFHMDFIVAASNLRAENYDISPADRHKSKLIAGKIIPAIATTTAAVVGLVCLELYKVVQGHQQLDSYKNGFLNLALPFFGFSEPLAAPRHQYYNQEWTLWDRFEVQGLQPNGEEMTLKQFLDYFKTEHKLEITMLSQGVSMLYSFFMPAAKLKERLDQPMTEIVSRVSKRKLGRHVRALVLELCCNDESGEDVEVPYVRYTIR
Experimental: as §1, §2

SMILES	inhibition at 0.111 µM [%]
NS(=O)(=O)OC[C@H]1C[C@@H](Nc2cc(Cl)nc3cc(-c4ccccn4)nn23)[C@H](O)[C@@H]1O (relative stereo) [Compound I-011, (rac)-((1R,2R,3S,4R)-4-(5-chloro-2-(pyridin-2-yl)pyrazolo[1,5-a]pyrimidin-7-ylamino)-2,3-dihydroxycyclopentyl)methyl rel-sulfamate]	49
NS(=O)(=O)OC[C@H]1C[C@@H](Nc2ccnc3cc(-c4cccc5ccccc45)nn23)[C@H](O)[C@@H]1O (relative stereo) [Compound I-002, (rac)-((1R,2R,3S,4R)-2,3-dihydroxy-4-{[2-(1-naphthyl)pyrazolo[1,5-a]pyrimidin-7-yl]amino}cyclopentyl)methyl rel-sulfamate]	100
NS(=O)(=O)OC[C@H]1C[C@@H](Nc2ccnc3cc(-c4ccccn4)nn23)[C@H](O)[C@@H]1O (relative stereo) [Compound I-012, (rac)-[(1R,2R,3S,4R)-2,3-dihydroxy-4-{[2-(pyridin-2-yl)pyrazolo[1,5-a]pyrimidin-7-yl]amino}cyclopentyl]methyl rel-sulfamate]	61

Now from value to compound:

inhibition at 0.111 µM [%]	SMILES
100	NS(=O)(=O)OC[C@H]1C[C@@H](Nc2ccnc3cc(-c4cccc(Cl)c4)nn23)[C@H](O)[C@@H]1O (relative stereo) [Compound I-005, (rac)-((1R,2R,3S,4R)-4-((2-(3-Chlorophenyl)pyrazolo[1,5-a]pyrimidin-7-yl)amino)-2,3-dihydroxycyclopentyl)methyl rel-sulfamate]
100	NS(=O)(=O)OC[C@H]1C[C@@H](Nc2ccnc3cc(-c4csc5cc(Cl)ccc45)nn23)[C@H](O)[C@@H]1O (relative stereo) [Compound I-091, (rac)-((1R,2R,3S,4R)-4-(2-(6-chlorobenzo[b]thiophen-3-yl)pyrazolo[1,5-a]pyrimidin-7-ylamino)-2,3-dihydroxycyclopentyl)methyl rel-sulfamate]
72	NS(=O)(=O)OC[C@H]1C[C@@H](Nc2ccnc3cc(-c4ccccc4)nn23)[C@H](O)[C@@H]1O (relative stereo) [Compound I-001, (rac)-((1R,2R,3S,4R)-2,3-dihydroxy-4-(2-phenylpyrazolo[1,5-a]pyrimidin-7-ylamino)cyclopentyl)methyl rel-sulfamate]

— patent US10202389B2, “Pyrazolopyrimidinyl inhibitors of ubiquitin-activating enzyme” (Millennium Pharmaceuticals, Inc., priority 2012, dated 2019)
